Legend:
Format in all cases: in vivo
Settings in all cases: Rate 1000 g/ha; evaluated after 13 days
Lolium perenne (LOLPE) [1] = assay: B2a post-emergence herbicidal activity
Protocol: (§1) Seeds of a variety of test species were sown in standard soil in pots: Amaranthus retroflexus (AMARE), Setaria faberi (SETFA), Zea mays (ZEAMX), Abutilon threophrasti (ABUTH), Echinochloa crus-galli (ECHCG), Lolium perenne (LOLPE). After 8 days cultivation (post-emergence) under controlled conditions in a glasshouse (at 24/16° C., day/night; 14 hours light; 65% humidity), the plants were sprayed with an aqueous spray solution derived from the formulation of the technical active ingredient in acetone/I water (50:50) solution containing 0.5% Tween 20 (polyoxyethelyene sorbitan monolaurate, CAS RN 9005-64-5). The test plants were then grown in a glasshouse under controlled conditions (at 24/16° C., day/night; 14 hours light; 65% humidity) and watered twice daily. After 13 days, the test was evaluated (5=total damage to plant; 0=no damage to plant).

Setaria faberi (SETFA) [2] = assay: B2a post-emergence herbicidal activity
Protocol: as §1

[3] = tested on: Abutilon threophrasti (ABUTH); assay: B2a post-emergence herbicidal activity
Protocol: as §1

Zea mays (ZEAMX) [4] = assay: B2a post-emergence herbicidal activity
Protocol: as §1

[5] = tested on: Amaranthus retroflexus (AMARE); assay: B2a post-emergence herbicidal activity
Protocol: as §1

[6] = tested on: Echinochloa crus-galli (ECHCG); assay: B2a post-emergence herbicidal activity
Protocol: as §1

Lolium perenne (LOLPE) [7] = assay: B1a pre-emergence herbicidal activity
Protocol: as §1, with “After” for “After 8 days”, “for one day (pre-emergence)” for “(post-emergence)”, “acetone/water” for “acetone/I water”, “plant). Results are shown below in Table 4” for “plant).”

Setaria faberi (SETFA) [8] = assay: B1a pre-emergence herbicidal activity
Protocol: as §1, with “After” for “After 8 days”, “for one day (pre-emergence)” for “(post-emergence)”, “acetone/water” for “acetone/I water”, “plant). Results are shown below in Table 4” for “plant).”

[9] = tested on: Abutilon threophrasti (ABUTH); assay: B1a pre-emergence herbicidal activity
Protocol: as §1, with “After” for “After 8 days”, “for one day (pre-emergence)” for “(post-emergence)”, “acetone/water” for “acetone/I water”, “plant). Results are shown below in Table 4” for “plant).”

Zea mays (ZEAMX) [10] = assay: B1a pre-emergence herbicidal activity
Protocol: as §1, with “After” for “After 8 days”, “for one day (pre-emergence)” for “(post-emergence)”, “acetone/water” for “acetone/I water”, “plant). Results are shown below in Table 4” for “plant).”

[11] = tested on: Amaranthus retroflexus (AMARE); assay: B1a pre-emergence herbicidal activity
Protocol: as §1, with “After” for “After 8 days”, “for one day (pre-emergence)” for “(post-emergence)”, “acetone/water” for “acetone/I water”, “plant). Results are shown below in Table 4” for “plant).”

[12] = tested on: Echinochloa crus-galli (ECHCG); assay: B1a pre-emergence herbicidal activity
Protocol: as §1, with “After” for “After 8 days”, “for one day (pre-emergence)” for “(post-emergence)”, “acetone/water” for “acetone/I water”, “plant). Results are shown below in Table 4” for “plant).”

Lolium perenne (LOLPE) [13] = assay: B1 pre-emergence herbicidal activity
Protocol: as §1, with “Triticum aestivium (TRZAW), Oryza sativa (ORYSA), Avena fatua (AVEFA), Alopecurus myosuroides (ALOMY),” for “Amaranthus retroflexus (AMARE), Setaria faberi (SETFA), Zea mays (ZEAMX), Abutilon threophrasti (ABUTH),”, “After” for “After 8 days”, “for one day (pre-emergence)” for “(post-emergence)”, “acetone/water” for “acetone/I water”

Oryza sativa (ORYSA) [14] = assay: B1 pre-emergence herbicidal activity
Protocol: as §1, with “Triticum aestivium (TRZAW), Oryza sativa (ORYSA), Avena fatua (AVEFA), Alopecurus myosuroides (ALOMY),” for “Amaranthus retroflexus (AMARE), Setaria faberi (SETFA), Zea mays (ZEAMX), Abutilon threophrasti (ABUTH),”, “After” for “After 8 days”, “for one day (pre-emergence)” for “(post-emergence)”, “acetone/water” for “acetone/I water”

[15] = tested on: Echinochloa crus-galli (ECHCG); assay: B1 pre-emergence herbicidal activity
Protocol: as §1, with “Triticum aestivium (TRZAW), Oryza sativa (ORYSA), Avena fatua (AVEFA), Alopecurus myosuroides (ALOMY),” for “Amaranthus retroflexus (AMARE), Setaria faberi (SETFA), Zea mays (ZEAMX), Abutilon threophrasti (ABUTH),”, “After” for “After 8 days”, “for one day (pre-emergence)” for “(post-emergence)”, “acetone/water” for “acetone/I water”

Avena fatua (AVEFA) [16] = assay: B1 pre-emergence herbicidal activity
Protocol: as §1, with “Triticum aestivium (TRZAW), Oryza sativa (ORYSA), Avena fatua (AVEFA), Alopecurus myosuroides (ALOMY),” for “Amaranthus retroflexus (AMARE), Setaria faberi (SETFA), Zea mays (ZEAMX), Abutilon threophrasti (ABUTH),”, “After” for “After 8 days”, “for one day (pre-emergence)” for “(post-emergence)”, “acetone/water” for “acetone/I water”

[17] = tested on: Triticum aestivium (TRZAW); assay: B1 pre-emergence herbicidal activity
Protocol: as §1, with “Triticum aestivium (TRZAW), Oryza sativa (ORYSA), Avena fatua (AVEFA), Alopecurus myosuroides (ALOMY),” for “Amaranthus retroflexus (AMARE), Setaria faberi (SETFA), Zea mays (ZEAMX), Abutilon threophrasti (ABUTH),”, “After” for “After 8 days”, “for one day (pre-emergence)” for “(post-emergence)”, “acetone/water” for “acetone/I water”

[18] = tested on: Alopecurus myosuroides (ALOMY); assay: B1 pre-emergence herbicidal activity
Protocol: as §1, with “Triticum aestivium (TRZAW), Oryza sativa (ORYSA), Avena fatua (AVEFA), Alopecurus myosuroides (ALOMY),” for “Amaranthus retroflexus (AMARE), Setaria faberi (SETFA), Zea mays (ZEAMX), Abutilon threophrasti (ABUTH),”, “After” for “After 8 days”, “for one day (pre-emergence)” for “(post-emergence)”, “acetone/water” for “acetone/I water”

Lolium perenne (LOLPE) [19] = assay: B2 post-emergence herbicidal activity
Protocol: as §1, with “Triticum aestivium (TRZAW), Oryza sativa (ORYSA), Avena fatua (AVEFA), Alopecurus myosuroides (ALOMY),” for “Amaranthus retroflexus (AMARE), Setaria faberi (SETFA), Zea mays (ZEAMX), Abutilon threophrasti (ABUTH),”, “acetone/water” for “acetone/I water”

Oryza sativa (ORYSA) [20] = assay: B2 post-emergence herbicidal activity
Protocol: as §1, with “Triticum aestivium (TRZAW), Oryza sativa (ORYSA), Avena fatua (AVEFA), Alopecurus myosuroides (ALOMY),” for “Amaranthus retroflexus (AMARE), Setaria faberi (SETFA), Zea mays (ZEAMX), Abutilon threophrasti (ABUTH),”, “acetone/water” for “acetone/I water”

[21] = tested on: Echinochloa crus-galli (ECHCG); assay: B2 post-emergence herbicidal activity
Protocol: as §1, with “Triticum aestivium (TRZAW), Oryza sativa (ORYSA), Avena fatua (AVEFA), Alopecurus myosuroides (ALOMY),” for “Amaranthus retroflexus (AMARE), Setaria faberi (SETFA), Zea mays (ZEAMX), Abutilon threophrasti (ABUTH),”, “acetone/water” for “acetone/I water”

Avena fatua (AVEFA) [22] = assay: B2 post-emergence herbicidal activity
Protocol: as §1, with “Triticum aestivium (TRZAW), Oryza sativa (ORYSA), Avena fatua (AVEFA), Alopecurus myosuroides (ALOMY),” for “Amaranthus retroflexus (AMARE), Setaria faberi (SETFA), Zea mays (ZEAMX), Abutilon threophrasti (ABUTH),”, “acetone/water” for “acetone/I water”

[23] = tested on: Triticum aestivium (TRZAW); assay: B2 post-emergence herbicidal activity
Protocol: as §1, with “Triticum aestivium (TRZAW), Oryza sativa (ORYSA), Avena fatua (AVEFA), Alopecurus myosuroides (ALOMY),” for “Amaranthus retroflexus (AMARE), Setaria faberi (SETFA), Zea mays (ZEAMX), Abutilon threophrasti (ABUTH),”, “acetone/water” for “acetone/I water”

[24] = tested on: Alopecurus myosuroides (ALOMY); assay: B2 post-emergence herbicidal activity
Protocol: as §1, with “Triticum aestivium (TRZAW), Oryza sativa (ORYSA), Avena fatua (AVEFA), Alopecurus myosuroides (ALOMY),” for “Amaranthus retroflexus (AMARE), Setaria faberi (SETFA), Zea mays (ZEAMX), Abutilon threophrasti (ABUTH),”, “acetone/water” for “acetone/I water”

Row | Structure (SMILES) | Control of LOLPE after post-emergence application (damage score 0-5) (Lolium perenne (LOLPE) [1]) | Control of SETFA after post-emergence application (damage score 0-5) (Setaria faberi (SETFA) [2]) | Control of ABUTH after post-emergence application (damage score 0-5) [3] | Control of ZEAMX after post-emergence application (damage score 0-5) (Zea mays (ZEAMX) [4]) | Control of AMARE after post-emergence application (damage score 0-5) [5] | Control of ECHCG after post-emergence application (damage score 0-5) [6] | Control of LOLPE after pre-emergence application (damage score 0-5) (Lolium perenne (LOLPE) [7]) | Control of SETFA after pre-emergence application (damage score 0-5) (Setaria faberi (SETFA) [8]) | Control of ABUTH after pre-emergence application (damage score 0-5) [9] | Control of ZEAMX after pre-emergence application (damage score 0-5) (Zea mays (ZEAMX) [10]) | Control of AMARE after pre-emergence application (damage score 0-5) [11] | Control of ECHCG after pre-emergence application (damage score 0-5) [12] | other results
1 | CCOC(=O)C(=O)N(C)c1cn(-c2cncnc2)nc1C(F)(F)F [Compound A43] | 0 | 1 | 2 | 2 | 1 | 1 | 0 | 0 | 0 | 0 | 0 | 0 | 
2 | Cc1nn(-c2cncnc2)cc1N(C)C(=O)Nc1c(C)noc1C [Compound A45] | 0 | 0 | 0 | 0 | 0 | 0 | 0 | 0 | 0 | 0 | 0 | 0 | 
3 | CCN(C(=O)OC(C)(C)C)c1cn(-c2cncnc2)nc1C(F)(F)F [Compound A56] |  |  |  |  |  |  |  |  |  |  |  |  | Control of LOLPE after pre-emergence application (damage score 0-5) (Lolium perenne (LOLPE) [13]): 0; Control of ORYSA after pre-emergence application (damage score 0-5) (Oryza sativa (ORYSA) [14]): 0; Control of ECHCG after pre-emergence application (damage score 0-5) [15]: 1; Control of AVEFA after pre-emergence application (damage score 0-5) (Avena fatua (AVEFA) [16]): 0; Control of TRZAW after pre-emergence application (damage score 0-5) [17]: 0; Control of ALOMY after pre-emergence application (damage score 0-5) [18]: 0; Control of LOLPE after post-emergence application (damage score 0-5) (Lolium perenne (LOLPE) [19]): 0; Control of ORYSA after post-emergence application (damage score 0-5) (Oryza sativa (ORYSA) [20]): 0; Control of ECHCG after post-emergence application (damage score 0-5) [21]: 1; Control of AVEFA after post-emergence application (damage score 0-5) (Avena fatua (AVEFA) [22]): 1; Control of TRZAW after post-emergence application (damage score 0-5) [23]: 1; Control of ALOMY after post-emergence application (damage score 0-5) [24]: 1
4 | CC(C)(C)OC(=O)Nc1cn(-c2cccnc2)nc1Cl [Compound A57] | 1 | 3 | 1 | 2 | 1 | 2 | 0 | 0 | 0 | 1 | 0 | 0 | 
5 | CC(C)OC(=O)Nc1cc(-c2cncnc2)nn1C(F)F [Compound A58, isopropyl N-[2-(difluoromethyl)-5-pyrimidin-5-yl-pyrazol-3-yl]carbamate] | 1 | 3 | 0 | 1 | 0 | 1 | 0 | 2 | 0 | 0 | 0 | 1 | 
6 | CC(C)OC(=O)N(C)c1cc(-c2cncnc2)nn1C(F)F [Compound A59, isopropyl N-[2-(difluoromethyl)-5-pyrimidin-5-yl-pyrazol-3-yl]-N-methyl-carbamate] | 0 | 3 | 0 | 2 | 0 | 1 | 0 | 3 | 0 | 2 | 0 | 2 | 
7 | CN(C(=O)OC(C)(C)C)c1cn(-c2cccnc2)nc1Cl [Compound A60, tert-butyl N-[3-chloro-1-(3-pyridyl)pyrazol-4-yl]-N-methyl-carbamate] | 2 | 4 | 2 | 3 | 3 | 4 | 0 | 4 | 0 | 2 | 1 | 2 | 

Source: US10905123B2, “Herbicidal compounds” (Syngenta Participations AG, priority 2015, dated 2021)
